Test [1] is described as follows: Biological activity level of mycolactones (test not specified).
In test [2] the test system is SF-268 central nervous system cancer cells. Kind of test: National Cancer Institute growth testing, SF-268. The format is cell-based. The protocol: (§1) Acetone-soluble lipids (ASLs) were prepared from intact M. ulcerans cells as in Example 1, except that the acetone resuspension was applied to a preparative TLC plate to allow substantial separation of the ASLs based on relative mobility in the TLC system. The ASL with a mobility of 0.23 relative to the solvent front was scraped from the plate and resuspended.

Test [3] has as its system infiltration of macrophages and polymorphonuclear neutrophils. The test can be described thus: Inflammatory reaction at site of M. marinum infection in guinea pigs. The format is in vivo, Hartley guinea pigs. Particulars: 16 hours after infection. The protocol:
Mycolactone was purified as in Example 2. Hartley guinea pigs were inoculated with an infectious quantity of M. marinum. When the inoculum was not accompanied by mycolactone, a painful, purulent lesion developed in the guinea pigs, indicative of an inflammatory reaction. In contrast, when mycolactone was injected into the locus, tissue necrosis still developed, but the infiltration of macrophages and polymorphonuclear neutrophils was delayed by 24 to 48 hours, resulting in greater than a 1,000-fold reduction in the number of neutrophils invading the site of infection 16 hours after infection. Inflammation, or the lack thereof, was confirmed by histopathological examination of paraffin embedded tissues stained with eosin and hematoxylin. While not desiring to be bound by any particular theory, it is believed that the subsequent inflammation that occurred in mycolactone-treated animals was partially a consequence of the continued growth of M. marinum. When the polyketide macrolides of the present invention are used to decrease inflammation at a site of infection, the inventive method is optionally accompanied by the administration of antibiotics.

Another test relates to H460 lung cancer cells. Kind of test: National Cancer Institute growth testing, H460. It counts as cell-based. The protocol:
as §1

The subject of test [4] is MCF-7 breast cancer cells. Kind of test: National Cancer Institute growth testing, MCF-7. It counts as cell-based. The protocol:
as §1

In the case of `C/C1=C/C[C@H]([C@@H](C)C/C(C)=C/[C@@H](C)[C@H](O)C[C@@H](C)O)OC(=O)CCC[C@H](OC(=O)/C=C/C(C)=C/C(C)=C/C=C/C(C)=C/[C@H](O)[C@@H](O)C[C@H](C)O)[C@@H](C)C1` [B], the “biological activity of isomers compared” value in test [1] (isomers differing at the 4′ position) is given as “same biological activity”.
Regarding `CC(=C\C=C\C(C)=C\C[C@@H](O)C[C@H](C)O)/C=C(C)/C=C/C(=O)O[C@H]1CCCC(=O)O[C@@H]([C@@H](C)C/C(C)=C/[C@@H](C)[C@H](O)C[C@@H](C)O)C/C=C(\C)C[C@@H]1C` [mycolactone C], in test [1] (mycolactone found in Australian isolates), the “activity level relative to the other mycolactones” value is reported as “about 10,000 fold lower”.
Regarding `CC(=C/C(C)=C/C=C/C(C)=C/C(O)C(O)CC(C)O)/C=C/C(=O)OC1CCCC(=O)OC(C(C)C/C(C)=C/C(C)C(O)CC(C)O)C/C=C(\C)CC1C` (stereo not drawn) [mycolactone], the relative growth rate is on record as −79% in test [2], −72% in the test with H460 lung cancer cells and −78% in test [4]. For the same molecule, the “reduction in the number of neutrophils invading the site of infection” value in test [3] is recorded as > 1,000 fold.

These data come from US6680055B1, “Mycolactone and related compounds, compositions and methods of use” (priority 1999, dated 2004).
